The subject of data set [1] is Jurkat cells. Nature of the data set: Cytoplasmic Ca2+ elevation by digital imaging in Jurkat cells. The class given is cell-based. The method, then:
These compounds, along with 320 additional compounds chosen by virtual screening, were screened for hit confirmation. Also, a secondary assay for compound effect on apoptosis was performed in KMS-12-BM cells. […] Thus, a total of 39 compounds were chosen for triplicate confirmation screening. The findings are schematically summarized by means of the heat map in FIG. 5. An ID number, assigned by the chemist(s) who synthesized the compounds, is located to the left. This ID is for identification purposes only and does provide other information about the compound. Columns 1 and 2 represent caspase activity, measured after 24 hr of treatment at UCDDC, normalized to the highest caspase activity observed. Activity levels range from low, represented by the color purple, to high, represented by the color red. Considerable variation among different compounds and between the myeloma lines is observed evident. […] In addition, the same assay was used to test the sensitivity of primary human CLL cells to each compound, as summarized in lane 5. The effect of each compound on intracellular Ca^2+ concentration was measured by digital imaging and results are shown as percentage of cells responding with a significant (more than twofold above baseline) elevation of cytoplasmic Ca^2+ concentration. […] An example of Ca2^+ elevation in response to one of the compounds is illustrated in FIG. 6. […]

Data set [2] has as its target T1, BH4 domain of Bcl-2 (Homo sapiens, UniProt P10415).
T1 construct: borders or tags not given
The experiment in a line: Surface plasmon resonance (Biacore) binding to the BH4 domain of Bcl-2. Particulars: SPR; for Kd: dose response / full binding curve. From the text: The next step in compound validation was to perform surface plasmon resonance (Biacore) to test for binding to the BH4 domain of Bcl-2. […] To date, we have positive evidence of compound binding to the BH4 domain in 4 compounds tested by SPR (FIG. 8). Testing of the remaining compounds from the 14 lead compounds is in progress.

The test system of data set [3] is multiple myeloma lines. Nature of the data set: Cell death induction in multiple myeloma lines (MTS assay). The class given is cell-based, human. The method, then:
(§1) Of the compounds tested, 148 were identified as hits at 6.5 μM in the primary single-point screen with activity>30% relative to apoptosis induced by 10 μM BIRD-2 in NCI-H929 cells. These compounds, along with 320 additional compounds chosen by virtual screening, were screened for hit confirmation. Also, a secondary assay for compound effect on apoptosis was performed in KMS-12-BM cells. […] Thus, a total of 39 compounds were chosen for triplicate confirmation screening. The findings are schematically summarized by means of the heat map in FIG. 5. An ID number, assigned by the chemist(s) who synthesized the compounds, is located to the left. This ID is for identification purposes only and does provide other information about the compound. Columns 1 and 2 represent caspase activity, measured after 24 hr of treatment at UCDDC, normalized to the highest caspase activity observed. Activity levels range from low, represented by the color purple, to high, represented by the color red. Considerable variation among different compounds and between the myeloma lines is observed evident. Columns 3 and 4 in the heat map (FIG. 5) summarize results of cell death assays testing cell death induction in the same myeloma lines in the Distelhorst laboratory using the MTS assay. In addition, the same assay was used to test the sensitivity of primary human CLL cells to each compound, as summarized in lane 5. The effect of each compound on intracellular Ca^2+ concentration was measured by digital imaging and results are shown as percentage of cells responding with a significant (more than twofold above baseline) elevation of cytoplasmic Ca^2+ concentration. The choice of the Jurkat line for these Ca^2+ measurements was based on our extensive evidence that BIRD-2 binds to the BH4 domain of Bcl-2 endogenously present in this line and that disruption of Bcl-2-IP3R interaction by BIRD-2 elevates cytoplasmic Ca^2+ in this line. An example of Ca2^+ elevation in response to one of the compounds is illustrated in FIG. 6.

Data set [4] relates to primary human CLL cells. Nature of the data set: Cell death induction in primary human CLL cells (MTS assay). The class given is cell-based. The method, then: as §1
A general note: Tetrazolium dyes change colour on reduction, which living cells bring about.

The subject of data set [5] is primary human CLL cells. Nature of the data set: Ca2+ elevation in primary CLL cells. The class given is cell-based.
Data set [6] has as its system normal human peripheral blood lymphocytes. Nature of the data set: Toxicity toward normal cells. The class given is cell-based.
Data set [7] concerns KMS-12-BM human myeloma cells. Nature of the data set: Combination with ABT-263, cell viability by CellTiter-Glo assay. Particulars: fixed concentration ratio, at several compound concentrations, CI<1 synergistic. The class given is cell-based. The text has this:
Since Bcl-2 works by two distinct mechanisms to inhibit apoptosis, we investigated the possibility that 854697 and ABT-263, which selectively target each of these mechanisms, might synergistically kill cancer cells. […] Combination indices (CI) were computed at each concentration to determine whether the increased cytotoxicity is due to an additive (CI=1) or synergistic (CI<1) effect. At several compound concentrations, the CI was <1, indicating synergistic cell death induction when these agents that act by different mechanisms are combined. These findings indicate additional value in developing 854697 as a novel therapeutic agent for Bcl-2-positive malignancies.

Data set [8] deals with small cell lung cancer (SCLC) cells. Nature of the data set: Cytotoxicity in small cell lung cancer (SCLC) lines. The class given is cell-based.
The test system of data set [9] is human myeloma cell lines (HMCLs). Nature of the data set: Apoptosis induction in human myeloma cell lines (HMCLs). The class given is cell-based. Particulars: including two lines resistant to ABT-737, ABT-263 and ABT-199. The text has this: Furthermore, one of the BIRD-2-sensitive lines, NCI-H929, corresponds to a multiple molecular subgroup that is resistant to BH3-mimetic agents and belongs to a poor prognosis category associated with chromosomal translocation. Thus, although BH3-mimetic agents represent a major advance in cancer treatment, resistance to these agents occurs and limits their efficacy, not only in multiple myeloma but other lymphoid malignancies as well. The resistance problem is not unique to HMCLs, but is illustrated by studies of ABT-737 and ABT-199 in primary MM cells where resistance was detected in more than half of primary patient samples tested. Therefore, these findings indicate the potential therapeutic importance of targeting both of Bcl-2's anti-apoptotic mechanisms. Adding to the potential value of targeting Bcl-2-IP3R interaction for treatment of multiple myeloma is the evidence reported here of synergistic activity when combined with chemotherapeutic agents typically employed in multiple myeloma treatment, and with ABT-263 and ABT-199.

In data set [10] the test system is H2171 Small cell lung cancer (SCLC) cells. Nature of the data set: BIRD-2/ABT-263 combination cytotoxicity in SCLC cells. Particulars: 24 hr, FIG. 4. The class given is cell-based. The protocol:
FIG. 4 is a graph illustrating BIRD-2/ABT-263 synergism. H2171 Small cell lung cancer (SCLC) cells treated from 24 hr with 5 μM BIB1 and 39 nM ABT-263 alone or together.

Data set [11] concerns the target T2, Bfl-1 (Homo sapiens, UniProt Q16548).
T2 sequence (Q16548 1-175): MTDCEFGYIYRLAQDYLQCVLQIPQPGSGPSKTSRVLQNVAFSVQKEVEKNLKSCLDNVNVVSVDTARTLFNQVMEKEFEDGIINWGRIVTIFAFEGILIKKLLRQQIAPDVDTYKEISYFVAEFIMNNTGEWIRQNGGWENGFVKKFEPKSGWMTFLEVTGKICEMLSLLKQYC
Particulars: read-out: IC50 displacing BH3 peptides; cited from earlier work.

Data set [12] concerns the target Bcl-XL (Homo sapiens, UniProt Q07817). Particulars: read-out: IC50 displacing BH3 peptides; cited from earlier work.
Data set [13] addresses T3, Bcl-B (Homo sapiens, UniProt Q9HD36).
T3 sequence (Q9HD36 1-204): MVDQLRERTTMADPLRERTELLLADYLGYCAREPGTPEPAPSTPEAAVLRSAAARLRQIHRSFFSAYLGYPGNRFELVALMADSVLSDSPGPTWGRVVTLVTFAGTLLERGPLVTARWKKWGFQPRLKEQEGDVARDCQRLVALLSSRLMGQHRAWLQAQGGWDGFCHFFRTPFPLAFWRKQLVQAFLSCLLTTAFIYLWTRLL
Particulars: read-out: IC50 displacing BH3 peptides; cited from earlier work.

“And” between values parts separate entries of the source, which are not always exact repeats. Equal entries are not always repeated. Where no end group is shown, it is not given here. Some results are limits rather than exact numbers.

T1 sequence (P10415 6-30 limits assumed): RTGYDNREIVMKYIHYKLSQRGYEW
Sequence of Bcl-XL (Q07817 whole entry, species assumed): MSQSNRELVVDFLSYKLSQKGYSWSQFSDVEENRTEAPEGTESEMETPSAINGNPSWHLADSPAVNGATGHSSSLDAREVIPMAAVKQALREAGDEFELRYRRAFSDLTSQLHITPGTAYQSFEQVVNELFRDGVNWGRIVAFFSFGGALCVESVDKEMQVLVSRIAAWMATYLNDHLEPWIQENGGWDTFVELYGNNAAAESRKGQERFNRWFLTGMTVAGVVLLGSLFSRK

With `COc1ccc2c(c1)CC[C@@H]1[C@@H]2CC[C@]2(C)[C@@H](NCCCCCCN3C(=O)C=CC3=O)CC[C@@H]12` [U73122, reference compound], in data set [1] (Jurkat cells pretreated 30 min with U73122), the “effect on 854697-induced Ca2+ elevation” value is “completely blocked”.

A word on the Kd: it is the constant that tells how readily two partners part at equilibrium. Low readings indicate higher affinity, high ones lower affinity. As to `O=C(/C=C/c1ccc(Cl)c(Cl)c1)NN1CCOC1=O` [compound 96505], in data set [2], the “binding to the BH4 domain of Bcl-2” value is reported as “bind to the BH4 domain of Bcl-2” and the affinity, expressed as Kd, was 24 µM. Further, the cell death induction result in data set [3] is listed as “inducing cell death”. Moreover, in data set [4], the cell death induction entry was “inducing cell death”.

`CSc1c(C#N)c(N)nc(SCC(=O)c2ccc(OC(F)F)cc2)c1C#N` [compound 197392]: the “binding to the BH4 domain of Bcl-2” value in data set [2] is given as “bind to the BH4 domain of Bcl-2”. In addition, the cell death induction entry in data set [3] and in [4] was “inducing cell death” each time.

On to `CN(C)C(=O)OCC(Cc1ccc2ccccc2c1)N1CCN(C(=O)C(N)Cc2ccc(F)cc2)C(CO)C1` (centres unmarked) [compound 854697], for which the “Ca2+ elevation” value in [5] is “induces Ca^2+ elevation”; in [1] (Jurkat cells), “inducing IP3R-mediated Ca^2+ elevation”. Further, the “binding to the BH4 domain of Bcl-2” value in [2] is reported as “bind to the BH4 domain of Bcl-2”. In addition, the Kd in data set [2] was 5.6 µM and 5.7 µM and 5.71 µM. In addition, in data set [6], the “toxic activity toward normal cells” value is given as “does not have toxic activity toward normal cells”. Besides, the cell death induction entry in data set [3] and in [4] was “inducing cell death” throughout. Besides, the “Combination index (CI) with ABT-263” value in data set [7] is less than 1. Further, the “killing of small cell lung cancer cells” value in [8] is given as “kills small cell lung cancer cells”.

Take “RKKRRQRRRGGNVYTEIKCNSLLPLAAIVRV [BIRD-2]”: in data set [9], the apoptosis induction entry was “induces apoptosis”. Further, the “cytotoxicity in combination with ABT-263” value in data set [10] was “synergistic cytotoxicity”. Further, the selective cytotoxicity result in [8] (15 SCLC lines treated) is given as “greater than two-fold selective cytotoxicity in 11 of the lines”.

As a reminder, the IC50 is the concentration that inhibits the measured activity by half. Consider `Cc1cc2c(C(C)C)c(O)c(O)c(C=O)c2c(O)c1-c1c(C)cc2c(C(C)C)c(O)c(O)c(C=O)c2c1O` [Gossypol, 1,6,7,1′,6′,7′-Hexahydroxy-5,5′-diisopropyl-3,3′-dimethyl-[2,2′]binaphthalenyl-8,8′-dicarbaldehyde], for which the IC50 in data set [11], in [12] and in data set [13] was roughly 0.5 µM throughout.
